By IC50 is commonly meant the concentration that gives 50% inhibition. Broadly, the half-life is the time needed for the level to fall by half in the phase considered.

Series [1] relates to BaF3. The experiment in a line: cells. As to conditions: Mus musculus, BaF3, 72 h.
Series [2] deals with BaF3. The experiment in a line: cells. The following applies: Mus musculus, BaF3, 72 h. This is another data set of the same source.
For the next series, the system named is HT-29. The experiment in a line: cells. As to conditions: Homo sapiens.
For a further series, the system named is HCT-116. In words: cells. As to conditions: Homo sapiens.
For a further series, the system named is COLO 205. The experiment in a line: cells. The following applies: Homo sapiens.
The test system of the next series is LoVo. In words: cells. The following applies: Homo sapiens.
Series [3] is described as follows: Cytotoxicity against human FHC cells assessed as cell growth inhibition by MTT assay. Type of series: toxicity, cell-based. Background: Tetrazolium dyes change colour on reduction, which living cells bring about.
The nature of series [4]: Metabolic stability in human liver microsomes assessed as half life at 1 uM measured upto 45 mins in presence of NADPH by LC-MS/MS analysis. The series is classed as ADME, Microsome. On the technique in general: Microsomes from liver hold many membrane-bound enzymes, among them those of drug oxidation.
A short description of series [5]: Metabolic stability in human liver microsomes assessed as intrinsic clearance at 1 uM measured upto 45 mins in presence of NADPH by LC-MS/MS analysis. The series is classed as ADME, Microsome. The following applies: read-out: CLH.
Series [6] in a line: Metabolic stability in human liver microsomes assessed as parent compound remaining at 1 uM measured after 45 mins in presence of NADPH by LC-MS/MS analysis. The series is classed as ADME, Microsome. The following applies: read-out: Stability.
Series [7] has as its target T1, Tyrosine-protein kinase ABL1 (Homo sapiens, UniProt P00519). In words: Inhibition of ABL (unknown origin) assessed as residual activity at 1 uM by kinome scan assay relative to control.
Series [8] concerns the target T2, Proto-oncogene tyrosine-protein kinase receptor Ret (Homo sapiens, UniProt P07949). In words: Inhibition of RET (unknown origin) assessed as residual activity at 1 uM by kinome scan assay relative to control.
Series [9] addresses Platelet-derived growth factor receptor beta (Homo sapiens) (UniProt P09619). The experiment in a line: Inhibition of PDGFRbeta (unknown origin) assessed as residual activity at 1 uM by kinome scan assay relative to control.
Series [10] deals with T1, Tyrosine-protein kinase ABL1. The experiment in a line: Inhibition of ABL (unknown origin) by kinome scan assay.
The target of series [11] is T2, Proto-oncogene tyrosine-protein kinase receptor Ret. The experiment in a line: Inhibition of RET (unknown origin) by kinome scan assay.
The test system of another series is EBC-1. In words: cells. As to conditions: Homo sapiens.
The subject of another series is NCI-H1993. In words: cells. The following applies: Homo sapiens.
The next series is described as follows: cells. The following applies: Homo sapiens, TT.
Another series deals with SNU-5. In words: cells. As to conditions: Homo sapiens.
The subject of another series is MKN-45. The experiment in a line: cells. The following applies: Homo sapiens.
For series [12], the target named is Hepatocyte growth factor receptor (Homo sapiens, UniProt P08581). The experiment in a line: Inhibition of c-Met (unknown origin).
Hepatocyte growth factor receptor, sequence (P08581 whole entry): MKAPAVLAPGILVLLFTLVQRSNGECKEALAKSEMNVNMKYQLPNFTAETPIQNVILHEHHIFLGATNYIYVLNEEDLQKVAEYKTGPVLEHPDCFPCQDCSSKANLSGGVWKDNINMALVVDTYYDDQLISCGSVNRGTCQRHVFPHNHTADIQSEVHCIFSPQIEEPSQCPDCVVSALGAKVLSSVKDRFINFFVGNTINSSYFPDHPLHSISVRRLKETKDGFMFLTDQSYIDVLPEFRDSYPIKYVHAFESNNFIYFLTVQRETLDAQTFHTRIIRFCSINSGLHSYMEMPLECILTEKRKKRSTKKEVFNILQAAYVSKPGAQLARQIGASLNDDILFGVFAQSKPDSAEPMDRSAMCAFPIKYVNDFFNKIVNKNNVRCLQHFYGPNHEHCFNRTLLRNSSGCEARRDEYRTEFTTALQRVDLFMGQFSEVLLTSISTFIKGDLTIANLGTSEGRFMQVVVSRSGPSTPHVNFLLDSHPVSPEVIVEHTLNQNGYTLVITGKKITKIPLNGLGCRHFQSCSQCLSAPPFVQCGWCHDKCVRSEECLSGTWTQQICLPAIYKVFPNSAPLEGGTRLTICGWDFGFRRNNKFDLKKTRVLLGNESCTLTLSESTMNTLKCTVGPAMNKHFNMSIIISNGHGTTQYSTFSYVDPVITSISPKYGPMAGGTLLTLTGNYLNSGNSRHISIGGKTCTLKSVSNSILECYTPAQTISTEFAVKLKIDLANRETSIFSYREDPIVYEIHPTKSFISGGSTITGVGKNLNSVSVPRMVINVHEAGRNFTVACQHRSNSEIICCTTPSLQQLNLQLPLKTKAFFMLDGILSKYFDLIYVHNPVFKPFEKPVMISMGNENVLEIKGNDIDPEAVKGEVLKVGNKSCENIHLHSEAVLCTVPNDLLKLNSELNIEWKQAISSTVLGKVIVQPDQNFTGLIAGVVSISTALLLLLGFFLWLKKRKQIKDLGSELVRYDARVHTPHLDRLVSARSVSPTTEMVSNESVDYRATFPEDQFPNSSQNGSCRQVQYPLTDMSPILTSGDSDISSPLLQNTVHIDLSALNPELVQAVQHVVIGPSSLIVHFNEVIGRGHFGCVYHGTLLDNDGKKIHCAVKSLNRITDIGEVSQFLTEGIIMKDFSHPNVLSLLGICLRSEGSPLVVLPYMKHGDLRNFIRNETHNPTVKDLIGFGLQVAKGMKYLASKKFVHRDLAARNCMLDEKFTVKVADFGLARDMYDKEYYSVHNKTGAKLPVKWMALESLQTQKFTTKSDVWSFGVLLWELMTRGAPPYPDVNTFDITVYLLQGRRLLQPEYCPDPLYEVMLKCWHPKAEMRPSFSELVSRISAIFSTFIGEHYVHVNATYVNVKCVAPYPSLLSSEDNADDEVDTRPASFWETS

T1 sequence (P00519 whole entry): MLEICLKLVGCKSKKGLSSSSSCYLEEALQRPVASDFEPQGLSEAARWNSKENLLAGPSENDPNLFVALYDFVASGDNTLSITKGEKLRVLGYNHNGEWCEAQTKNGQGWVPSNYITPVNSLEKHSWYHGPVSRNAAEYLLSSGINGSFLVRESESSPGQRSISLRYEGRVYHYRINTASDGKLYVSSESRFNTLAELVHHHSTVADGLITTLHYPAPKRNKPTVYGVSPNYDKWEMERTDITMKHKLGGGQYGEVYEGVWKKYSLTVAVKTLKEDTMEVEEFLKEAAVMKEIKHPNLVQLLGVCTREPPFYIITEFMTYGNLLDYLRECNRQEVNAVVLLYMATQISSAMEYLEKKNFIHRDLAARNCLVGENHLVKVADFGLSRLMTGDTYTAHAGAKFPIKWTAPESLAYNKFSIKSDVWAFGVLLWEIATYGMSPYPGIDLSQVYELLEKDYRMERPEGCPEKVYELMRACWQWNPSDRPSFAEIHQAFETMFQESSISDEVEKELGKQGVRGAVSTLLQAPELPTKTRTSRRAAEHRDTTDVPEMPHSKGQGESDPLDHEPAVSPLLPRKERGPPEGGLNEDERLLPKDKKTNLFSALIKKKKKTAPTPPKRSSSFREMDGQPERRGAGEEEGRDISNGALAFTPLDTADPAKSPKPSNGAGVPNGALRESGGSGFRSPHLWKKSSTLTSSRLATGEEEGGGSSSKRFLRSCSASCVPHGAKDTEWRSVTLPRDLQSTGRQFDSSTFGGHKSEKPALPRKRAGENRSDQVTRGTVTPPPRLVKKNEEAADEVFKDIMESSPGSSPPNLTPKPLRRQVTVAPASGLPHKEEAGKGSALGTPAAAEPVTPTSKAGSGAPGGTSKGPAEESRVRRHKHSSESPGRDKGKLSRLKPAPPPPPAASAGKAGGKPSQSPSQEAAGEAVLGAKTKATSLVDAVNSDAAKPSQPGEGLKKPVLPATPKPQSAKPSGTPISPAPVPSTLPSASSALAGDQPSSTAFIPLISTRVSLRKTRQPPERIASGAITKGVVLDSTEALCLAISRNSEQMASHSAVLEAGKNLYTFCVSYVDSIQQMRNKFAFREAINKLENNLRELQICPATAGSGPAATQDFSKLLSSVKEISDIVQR
T2 sequence (P07949 whole entry): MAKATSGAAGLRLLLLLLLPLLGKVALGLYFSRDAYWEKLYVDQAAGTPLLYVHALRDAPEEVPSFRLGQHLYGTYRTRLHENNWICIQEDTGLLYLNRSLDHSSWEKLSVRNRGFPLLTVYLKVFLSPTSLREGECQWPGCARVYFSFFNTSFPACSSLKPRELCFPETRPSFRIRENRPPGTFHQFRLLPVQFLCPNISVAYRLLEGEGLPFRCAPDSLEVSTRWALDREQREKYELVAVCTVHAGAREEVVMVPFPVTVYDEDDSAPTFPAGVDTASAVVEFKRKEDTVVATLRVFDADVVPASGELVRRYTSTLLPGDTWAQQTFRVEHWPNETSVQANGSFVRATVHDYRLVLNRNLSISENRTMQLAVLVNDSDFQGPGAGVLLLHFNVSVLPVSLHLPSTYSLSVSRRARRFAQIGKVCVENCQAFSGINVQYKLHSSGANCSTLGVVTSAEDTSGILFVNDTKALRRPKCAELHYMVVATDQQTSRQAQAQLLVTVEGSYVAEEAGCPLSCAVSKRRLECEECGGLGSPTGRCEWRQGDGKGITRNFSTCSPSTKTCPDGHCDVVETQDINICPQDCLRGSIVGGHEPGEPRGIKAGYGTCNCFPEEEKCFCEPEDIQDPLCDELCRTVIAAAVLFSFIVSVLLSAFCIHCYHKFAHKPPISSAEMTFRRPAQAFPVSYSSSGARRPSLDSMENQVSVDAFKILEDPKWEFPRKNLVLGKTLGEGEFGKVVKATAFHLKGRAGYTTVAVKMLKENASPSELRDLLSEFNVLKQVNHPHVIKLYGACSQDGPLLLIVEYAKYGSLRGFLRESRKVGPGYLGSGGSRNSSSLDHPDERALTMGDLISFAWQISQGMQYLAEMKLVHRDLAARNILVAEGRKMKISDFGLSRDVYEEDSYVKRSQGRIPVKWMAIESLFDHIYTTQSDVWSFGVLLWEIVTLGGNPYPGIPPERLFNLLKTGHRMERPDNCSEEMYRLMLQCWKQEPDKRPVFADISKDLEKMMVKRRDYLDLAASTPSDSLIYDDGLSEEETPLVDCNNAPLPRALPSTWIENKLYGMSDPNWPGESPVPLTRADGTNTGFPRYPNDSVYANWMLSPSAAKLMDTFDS
Platelet-derived growth factor receptor beta (Homo sapiens), sequence (P09619 whole entry): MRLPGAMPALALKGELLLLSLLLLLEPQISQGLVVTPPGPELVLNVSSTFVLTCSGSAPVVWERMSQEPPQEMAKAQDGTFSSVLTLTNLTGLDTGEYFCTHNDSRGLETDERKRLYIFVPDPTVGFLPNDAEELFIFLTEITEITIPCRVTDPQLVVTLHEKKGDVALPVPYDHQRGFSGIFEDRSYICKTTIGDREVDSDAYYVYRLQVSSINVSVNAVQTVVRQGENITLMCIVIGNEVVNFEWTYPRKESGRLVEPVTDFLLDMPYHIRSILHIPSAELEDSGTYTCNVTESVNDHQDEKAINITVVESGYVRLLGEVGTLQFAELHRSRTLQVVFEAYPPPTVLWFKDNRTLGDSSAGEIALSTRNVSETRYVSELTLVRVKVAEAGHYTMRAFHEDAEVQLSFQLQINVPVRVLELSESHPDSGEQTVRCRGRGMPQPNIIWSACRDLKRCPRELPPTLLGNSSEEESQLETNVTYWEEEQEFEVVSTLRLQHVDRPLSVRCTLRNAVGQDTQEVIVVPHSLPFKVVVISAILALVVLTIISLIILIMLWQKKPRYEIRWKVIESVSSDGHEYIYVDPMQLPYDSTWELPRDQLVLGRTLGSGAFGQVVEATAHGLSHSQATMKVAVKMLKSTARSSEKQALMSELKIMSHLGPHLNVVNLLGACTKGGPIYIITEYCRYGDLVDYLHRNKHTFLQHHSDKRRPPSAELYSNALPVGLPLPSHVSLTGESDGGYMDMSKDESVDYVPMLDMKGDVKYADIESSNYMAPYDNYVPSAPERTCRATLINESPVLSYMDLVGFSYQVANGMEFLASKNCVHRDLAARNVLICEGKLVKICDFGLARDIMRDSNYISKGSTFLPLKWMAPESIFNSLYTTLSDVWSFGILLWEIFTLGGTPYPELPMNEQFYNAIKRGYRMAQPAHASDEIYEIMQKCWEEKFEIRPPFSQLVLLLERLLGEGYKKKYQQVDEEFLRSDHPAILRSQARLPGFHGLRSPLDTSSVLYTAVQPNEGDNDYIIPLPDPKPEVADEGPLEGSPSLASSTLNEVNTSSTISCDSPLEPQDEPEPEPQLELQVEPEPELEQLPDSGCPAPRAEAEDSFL

In the case of `CCN(CC)CCCOc1cc2nccc(Nc3ccc(NC(=O)NN4C(=O)CSC4c4c(F)cccc4F)cc3)c2cc1OC` (configuration not stated), the IC50 with BaF3 [1] was 2100 nM; in the series on BaF3 [2] it was 4500 nM; in the series with HT-29, 5500 nM; with HCT-116, above 10000 nM.
For the molecule `CNC(=O)c1c(C)oc2cc(Oc3ncnc4cc(OC)c(OC)cc34)ccc12` [FRUQUINTINIB], the IC50 in the series on HT-29 is 1500 nM; in the series with HCT-116, 800 nM; with COLO 205, above 10000 nM; in the series with LoVo it was above 10000 nM.
As for `CCN(CC)CCCOc1cc2nc(N)cc(Oc3ccc(NC(=O)NN4C(=O)CSC4c4c(F)cccc4F)cc3)c2cc1OC` (configuration not stated), the IC50 in the series with BaF3 [1] was 3300 nM; in the series on BaF3 [2] it was above 10000 nM.
As for `CCN(CC)CCCOc1cc2nccc(Oc3c(F)cc(NC(=O)NN4C(=O)CSC4c4c(F)cccc4F)cc3F)c2cc1OC` (configuration not stated), the IC50 in series [3] was determined as 3800 nM; with BaF3 [1], 94 nM; in the series on BaF3 [2] it was 220 nM; in the series on HT-29, 140 nM; in the series on HCT-116 it was 440 nM.
Turning to `CCN1CCN(CCCOc2cc3nccc(Oc4c(F)cc(NC(=O)NN5C(=O)CSC5c5ccc(F)cc5F)cc4F)c3cc2OC)CC1` (racemic), the IC50 in series [3] was 4200 nM; in [10], 145 nM; in series [11], 27.9 nM; in the series on BaF3 [1], 57 nM; in the series with HT-29, 530 nM; in the series on HCT-116 it was 98 nM. Moreover, the IC50 in the series on EBC-1 is 150 nM; with NCI-H1993 it was 1500 nM; in the series with COLO 205, 35 nM; in the series on LoVo, 1600 nM; in “cells”, 780 nM; in the series with SNU-5 it was 170 nM. In the series on MKN-45, this molecule returned an IC50 of 380 nM. Further, the half-life at 1 µM in series [4] was 2.7 h. The CLint scaled at 1 µM in series [5] amounted to 10.7 mL/min/kg. Also, the remaining at 0.75 h, 1 µM in [6] worked out at 82%. Also, the Activity in series [7] was found to be 0.25%; in series [8], 0.25%; in [9] it was 0.1%.
Regarding `CCN1CCN(CCCOc2cc3nccc(Oc4ccc(NC(=O)NN5C(=O)CSC5c5c(F)cccc5F)cc4)c3cc2OC)CC1` (configuration not stated), the IC50 in the series on BaF3 [1] was determined as 59 nM; in the series on BaF3 [2], 130 nM; in the series with HT-29, 220 nM; in the series on HCT-116, 110 nM.
Regarding `CCN(CC)CCCOc1cc2nccc(Oc3ccc(NC(=O)NN4C(=O)CSC4c4c(F)cccc4F)cc3)c2cc1OC` (configuration not stated), the IC50 in the series on BaF3 [1] amounted to 58 nM; in the series on BaF3 [2], 120 nM; in the series on HT-29, 530 nM; in the series on HCT-116, 150 nM.
The matching figures for `CCN1CCN(CCCOc2cc3nccc(Oc4c(F)cc(NC(=O)NN5C(=O)CSC5c5ccccc5)cc4F)c3cc2OC)CC1` (configuration not stated): 140 nM, 260 nM, 140 nM and 210 nM.
The matching figures for `CCN1CCN(CCCOc2cc3nccc(Oc4c(F)cc(NC(=O)NN5C(=O)CSC5c5ccc(F)cc5)cc4F)c3cc2OC)CC1` (configuration not stated): 71 nM, 140 nM, 520 nM and 200 nM.
Take `COc1cc2c(Oc3ccc(NC(=O)NN4C(=O)CSC4c4c(F)cccc4F)cc3)ccnc2cc1OCCCN1CCCC1` (configuration not stated): the IC50 in the series on BaF3 [1] amounted to 66 nM; with BaF3 [2], 150 nM; with HT-29, 160 nM; in the series on HCT-116, 810 nM.
Consider `CCN1CCN(CCCOc2cc3nccc(Oc4c(F)cc(NC(=O)NN5C(=O)CSC5c5c(F)cccc5F)cc4F)c3cc2OC)CC1` (configuration not stated), for which the IC50 in [3] was above 10000 nM; with BaF3 [1], 45 nM; with BaF3 [2] it was 76 nM; with HT-29, 69 nM; with HCT-116, 540 nM; in the series with EBC-1, 160 nM. Moreover, the IC50 in the series on COLO 205 is 48 nM; with LoVo, 930 nM; in the series “cells”, 2300 nM; in the series on SNU-5, 270 nM; in the series on MKN-45, 610 nM. The half-life at 1 µM in series [4] turned out to be 1.47 h. For the same molecule, the CLint scaled at 1 µM in series [5] was 19.8 mL/min/kg. Besides, the remaining at 0.75 h, 1 µM in series [6] turned out to be 70.1%.
Regarding `CCN1CCN(CCCOc2cc3nccc(Oc4c(F)cc(NC(=O)NN5C(=O)CSC5c5ccccc5F)cc4F)c3cc2OC)CC1` (configuration not stated), the IC50 in series [3] is above 10000 nM; in the series with BaF3 [1], 53 nM; in the series on BaF3 [2], 88 nM; in the series on HT-29, 110 nM; in the series on HCT-116, 140 nM; with EBC-1, 230 nM. In addition, the IC50 with NCI-H1993 turned out to be 2300 nM; in the series on COLO 205, 63 nM; with LoVo it was 1300 nM; in the series on SNU-5, 880 nM; in the series with MKN-45 it was 2300 nM. Also, in [4], the half-life at 1 µM was 2.17 h. Besides, the CLint scaled at 1 µM in series [5] amounted to 13.3 mL/min/kg. Moreover, the remaining at 0.75 h, 1 µM in [6] came out at 78.2%.
As for `CCN(CC)CCCOc1cc2nccc(Oc3ccc(NC(=O)NN4C(=O)CSC4c4c(F)cccc4F)cc3C)c2cc1OC` (configuration not stated), the IC50 in the series on BaF3 [1] was found to be 460 nM; with BaF3 [2], 840 nM; with HT-29 it was 220 nM; in the series on HCT-116, 640 nM.
In the case of `CCN1CCN(CCCOc2cc3nccc(Oc4c(F)cc(NC(=O)NN5C(=O)CS[C@@H]5c5ccc(F)cc5F)cc4F)c3cc2OC)CC1`, the values for the IC50 (in series [3]; in the series on COLO 205) were 4500 nM and 63 nM, respectively. Further, the half-life at 1 µM in series [4] was found to be 2.58 h.
As for `CCN(CC)CCCOc1cc2nccc(N(C)c3ccc(NC(=O)NN4C(=O)CSC4c4c(F)cccc4F)cc3)c2cc1OC` (configuration not stated), the IC50 in the series with BaF3 [1] was 2200 nM; in the series with BaF3 [2] it was 6900 nM; with HCT-116 it was above 10000 nM.
`CCN(CC)CCCOc1cc2nccc(Oc3ccc(CC(=O)NN4C(=O)CSC4c4c(F)cccc4F)cc3)c2cc1OC` (configuration not stated): the IC50 stood at 1300 nM in the series with BaF3 [1], 2600 nM with BaF3 [2], 1600 nM in the series with HT-29 and 7800 nM with HCT-116.
For the molecule `C[C@]12CC[C@H]3[C@@H](CCC4=CC(=O)CC[C@@]43C)[C@@H]1CC[C@@H]2O` [TESTOSTERONE], the half-life at 1 µM in [4] came out at 0.177 h. Besides, in series [5], the CLint scaled at 1 µM was 164 mL/min/kg. The remaining at 0.75 h, 1 µM in series [6] turned out to be 8.1%.
As to `COc1cc2nccc(Oc3c(F)cc(NC(=O)NN4C(=O)CSC4c4c(F)cccc4F)cc3F)c2cc1OC` (configuration not stated), the IC50 with BaF3 [1] is 170 nM; with BaF3 [2], 650 nM; with HT-29, 4100 nM; in the series on HCT-116 it was above 10000 nM.
Regarding `O=C(Nc1ccc(Oc2ccnc3c2CCN3)c(F)c1)c1c[nH]cc(-c2ccc(F)cc2)c1=O`, in series [12], the IC50 stood at 6 nM.
Regarding `CNC(=O)c1cc(Oc2ccc(NC(=O)Nc3ccc(Cl)c(C(F)(F)F)c3)c(F)c2)ccn1` [REGORAFENIB], the IC50 in the series with HT-29 came to 8600 nM; in the series with HCT-116, 3500 nM.
As for `O=c1ccc2ccc(O)cc2o1` [UMBELLIFERONE], in series [4], the half-life at 1 µM was 0.1 h. Moreover, the CLint scaled at 1 µM in series [5] stood at 289 mL/min/kg. Also, the remaining at 0.75 h, 1 µM in [6] is 0.8%.
Turning to `CCN(CC)CCCOc1cc2nccc(Oc3ccc(NC(=O)NN4C(=O)CSC4c4c(F)cccc4F)cc3OC)c2cc1OC` (configuration not stated), the IC50 with BaF3 [1] was found to be 110 nM; in the series with BaF3 [2] it was 160 nM; with HT-29, 680 nM; in the series on HCT-116, 200 nM.
Consider `CCN(CC)CCCOc1cc2nccc(Oc3ccc(C(=O)NN4C(=O)CSC4c4c(F)cccc4F)cc3)c2cc1OC` (configuration not stated), for which the IC50 in the series with BaF3 [1] came out at 330 nM; in the series with BaF3 [2], 930 nM; in the series with HT-29, 680 nM; in the series with HCT-116 it was 3200 nM.
